Results taken from US20220404374A1, “METHOD FOR DETERMINING WHETHER OR NOT A SUBJECT HAS A PARKINSONIAN CONDITION” (UNIVERSITE DU LUXEMBOURG, priority 2019, published 2022).

Columns and labels:
IL-1b mRNA expression = IL-1b mRNA expression (qPCR) in murine bone-marrow derived macrophages; assay type: cell-based; conditions: 10 mM 2-HP, murine BMDMs
Experimental: NLRP3 inflammasome activation is thought to play a role in the pathogenesis of neurodegenerative disorders, and increased levels of this inflammasome and of the related cytokine IL-1b have been detected in Parkinson's patients (Guan & Han, 2020). […] Inflammasome activation was evaluated with qPCR for IL-1b expression (normalized to β-actin), considering the fold change relative to 0 mM 2-HP of each time point.

wildtype mice = experiment: adhesive removal test in mice after 2-HP injection into the brain; assay type: in vivo; conditions: higher 2-HP concentrations injected into the brain, 15 days post-injection, vs PBS
Experimental: The in vivo work testing for effects of 2-HP in a mouse model lead to results from a small-scale 15-day experiment. In this experiment, 2-HP was injected at several concentrations (5, 50 and 100 mM) into the brain of transgenic mice overexpressing human alpha-synuclein, and of wildtype control mice.

[1] = tested on: HiTox strains of yeast expressing human alpha-synuclein; experiment: toxicity assays of 2-HP in HiTox strains of yeast expressing human alpha-synuclein (growth phenotyping); assay type: cell-based
Experimental: Yeast cells were grown in synthetic complement (SC) media containing 6.7 g/L yeast nitrogen base without amino acids, 5 g/L ammonium sulfate supplemented with 2 g/L SC. Media was autoclaved and the carbon source (8% raffinose or galactose) was added to a final concentration of 2%.
Four fresh single colonies of the Hitox strain and its respective control strain were inoculated from SC-2% glucose plates into 5 mL SC-2% raffinose and incubated overnight with shaking (200 rpm) at 30° C. After ≈20 h, overnight cultures were diluted to OD 0.5 and 2 μL of the yeast cultivation was added to 78 μL drug containing media to a final optical density of 0.0125 in a 384-well microplate. 2-HP was diluted in SC-2% raffinose/galactose and tested at different concentrations (1-100 mM). Finally, the plates are measured in a microplate reader (TECAN™ Infinite M200Pro), at an interval of 10 minutes during 72 h at 30° C. Yeast growth phenotyping was performed as previous described (Jung et al. 2015). Final biomass was corrected using the GATHODE software (Jung et al. 2015). The OD600 at 48 h was taken for the quantification.

enteric neurons = experiment: toxicity of 2-HP in enteric neurons (MTT cell viability assay); assay type: cell-based
Experimental: Enteric neurons were cultured in differentiation medium, consisting on Neurobasal (Invitrogen, 21103049) supplemented with 1:200 N2 (Invitrogen, 17502048), 1:100 L-Glutamine (Invitrogen, 25030-024), 1:100 B-27 without Vitamin A (Life Technologies, 12587-010), 1:100 Penicillin/Streptomycin (Invitrogen, 15140122), 25 ng/mL GDNF (Peprotech, 450-10) and 100 μM Ascorbic Acid (Sigma, A5960). Cells were cultured for 21 days in a 6-well plate, then detached with Accutase (Sigma, A6964), and replated into a 96-well plate. Cells were maintained under differentiating conditions until day 31, when they were treated with increasing concentrations of 2-hydroxypyridine (Sigma, H56800). Tested concentrations were as follows: 1 μM, 3 μM, 6 μM, 10 μM, 30 μM, 60 μM, 100 μM, 300 μM, 600 μM, 1 mM and 3 mM.
2-hydroxypyridine was reconstituted to 10 mM in the differentiation medium described above.
Cells were treated for 24 h, then cell viability was assessed performing a Tetrazolium (MTT) assay. Thiazolyl Blue tetrazolium Bromide (Sigma, M5655) was reconstituted to a 5 mg/mL solution in differentiation media and filtered. 10 μL of the solution were then added to every well containing 100 μL of media. Plate was incubated for 2 h in a normal incubator (37° C., 5% CO2). […] Cells were disaggregated by pipetting vigorously and absorbance was read at 570 nm, using the microplate Cytation 5M reader (Biotek).

[2] = control strain, higher concentration of 2-HP (FIG. 3C)

## Oc1ccccn1 [2-HP, 2-hydroxypyridine]
IL-1b mRNA expression; 3 hours
  increase in IL-1b mRNA (fold change relative to 0 mM 2-HP, normalized to β-actin): 3.2 fold
IL-1b mRNA expression; 24 hours
  increase in IL-1b mRNA (fold change relative to 0 mM 2-HP, normalized to β-actin): 1.5 fold
Wildtype mice
  performance in the adhesive removal test (sensorimotor function): perform worse
[1]; HiTox yeast expressing human alpha-synuclein vs control strain
  dose at which 2-HP is selectively toxic to transgenic alpha-synuclein expressing yeast: 1 mM
[1]; [2]
  lag time of growth curve: prolonged
  yield of growth curve: unaffected
[1]; galactose, alpha-synuclein induced (FIG. 3B), HiTox strains vs control strain
  toxic dose-response, galactose: A toxic dose-response can be observed in the HiTox strains, but not in the control strain
[1]; raffinose, alpha-synuclein not induced (FIG. 3A)
  toxic dose-response, raffinose: A toxic dose-response can be observed
Enteric neurons
  toxicity on enteric neurons at 3 mM: significant changes
Enteric neurons; enteric neurons, 24 h treatment, MTT
  LD50: around 3 mM
